Where a SMILES comes first, the peptide text is derived from it. [ ]: non-standard residue; d: D form. The star is where a group is joined. Nva = CCC[C@H](N)C(=O)O; Cbz = O=C(OCc1ccccc1)*
Test system: Jurkat T cells overexpressing Bcl-2
Assay: Western blot, fractionation, RT-PCR, immunostaining and IP in Bcl-2-overexpressing Jurkat T cells
Assay type: cell-based, human
Details: for cytoplasmic Bax-immunofluorescent signals: immunofluorescent staining
Procedure: FIGS. 7A-7H show proteasome inhibitor LLnV induces Bax accumulation, cytochrome c release and PARP cleavage in Bcl-2-overexpressing Jurkat T cells. (FIGS. 7A-7C) Jurkat T cells overexpressing Bcl-2 (0 h) were treated with 50 μM LLnV for up to 8 h, followed by preparation of cytosol and mitochondrial fractions. Both fractions were immunoblotted first by an antibody to cytochrome c (Cyto C, MW 17 kDa; FIG. 7A and FIG. 7C) and then reblotted by anti-cytochrome oxidase subunit II (COX, MW 26 kDa; FIG. 7B). Note: 20 μg protein from the cytosol, and 40 μg protein from the mitochondrial, preparation was used in each lane. (FIGS. 7D-7G) Whole cell extracts (70 μg per lane) of the above treated cells were immunoblotted with specific antibodies to PARP (FIG. 7D), Bax (clone N-20; FIG. E), Bcl-2 (FIG. 7F), or actin (FIG. 7G). Molecular masses of PARP, the PARP cleavage fragment (p85), Bax, Bcl-2 and actin are 113, 85, 21, 26 and 40 kDa, respectively. Positions of protein markers are indicated at right. (FIG. 7H) Bcl-2-expressing Jurkat cells (Control) were treated with 50 μM LLnV for 8 h, followed by RT-PCR. For the first-strand cDNA synthesis, 0.2 (lanes 1, 4), 0.6 (lanes 2, 5) and 1.8 μg (lanes 3, 6) of the total RNA were used. The positions of Bax (538 bp) and G3PDH mRNA (983 bp) are indicated. Lane M is DNA molecular weight marker.
FIGS. 8A-8D show proteasome inhibition accumulates Bax to mitochondria/cytoplasm and increases interaction between Bax and Bcl-2 proteins. Jurkat cells (0 h; FIG. 8A and FIG. 8B) or Jurkat cells overexpressing Bcl-2 (0 h; FIG. 8C and FIG. 8D) were treated by either 10 μM lactacystin (FIGS. 8A-8C), 50 μM LLnV (FIG. 8D), or 50 μM LLM (FIG. 8A and FIG. 8B) for the indicated hours. (FIG. 8A and FIG. 8B) Western blotting with antibodies to PARP and Bax were performed as described in FIG. 7. (FIG. 8C) Immunohistochemistry (see MATERIALS AND METHODS). Localization of Bax protein (green) and nuclei (red) are shown. (FIG. 8D) Bax immunoprecipitates, prepared by an agarose-conjugated N-20 Bax antibody, were immunoblotted first with the 6A7 Bax antibody (upper) and then reblotted with a Bcl-2 antibody (lower).
Cell Culture and Drug Treatment: Human breast cancer MCF-7 cells, Jurkat T cells, and Jurkat T cells stably transfected with pRcCMV vector containing a complete human bcl-2 cDNA (obtained from Dr. Hong-gang Wang, Moffitt Cancer Center & Research Institute) were grown in RPMI 1640 growth medium (An et al., 1998). Treatment of cell with a proteasome inhibitor was performed as described (An et al., 1998; Dou et al., 1999).
Western blot analysis and Immunoprecipitation: Whole cell extract (An et al., 1996), whole tissue extracts (Loda et al., 1997), and cytosol and mitochondria fractions (Fang et al., 1998) were prepared as described. The enhanced chemiluminescence Western blot assay was performed as described previously (An et al., 1996). To perform a coupled immunoprecipitation-Western blot assay, a whole cell or tissue extract (200 microg protein) was first precleared by incubating with protein A plus protein G agarose beads (Calbiochem) at 4° C. for 2 hours. The collected supernatant was then incubated for at least 3 hours with either […] of agarose beads conjugated with the N20 Bax antibody (Santa Cruz Biotech), or the 6A7 Bax antibody, followed by incubation with protein A/protein G beads at 4° C. overnight. The washed Bax immunoprecipitates were boiled in SDS sample buffer and used for Western blotting with antibodies to Bax, Bcl-2 or ubiquitin.
Immunocytochemistry and Reverse Transcriptase-Polymerase Chain Reaction (RT-PCR): Immunocytochemistry was performed with the rabbit polyclonal Bax antibody (N20) and an FITO-labeled goat anti-rabbit antibody (Southern Biotech.; Birmingham, Ala.), followed by counter-staining nuclei with propidium iodide (Sigma) (Bossy-Wetzel et al., 1998). To perform RT-PCR, total RNA was isolated from Jurkat T cells by an Advantage RT-for-PCR kit (Clontech; palo Alto, Calif.). […]

Row | SMILES | level of cytosolic cytochrome c (50 μM LLnV, 6 to 8 hours) | level of Bax protein (Bax/p21) (50 μM LLnV, 1 hour or longer, Western blot) | Bax mRNA level (50 μM LLnV, 8 h, RT-PCR) | levels of Bax/p21 and Bax-bound Bcl-2 protein (50 μM LLnV, Bax immunoprecipitation-Western blot) | induction of apoptosis (PARP cleavage) (50 μM LLnV, up to 8 h) | levels of the overexpressed Bcl-2 protein (50 μM LLnV, up to 8 h) | cytoplasmic Bax-immunofluorescent signals
1 | CCC[C@@H](C=O)NC(=O)[C@H](CC(C)C)NC(=O)[C@H](CC(C)C)NC(=O)OCc1ccccc1 [LLnV] (Cbz-Leu-Leu-[Nva]-aldehyde) | increased | increased | remained unchanged | significantly increased | cleavage of PARP | Little changes | markedly increased
2 | CC(=O)N[C@@H](CSC(=O)[C@]1([C@@H](O)C(C)C)NC(=O)[C@H](C)[C@@H]1O)C(=O)O [lactacystin] | – | – | – | – | – | – | markedly increased
